Assay: Human HepG2 cell viability assay in 384 well format
Assay type: toxicity, cell-based
Parameters: dose 125 nL, time 70.5 hour; concentration not given beside the values
Details: HepG2 cells, read-out: Inhibition

Row | Structure (SMILES) | cytotoxicity at 70.5 h
1 | N#Cc1cccc(N2CCC(CO)(CCOc3ccccc3)CC2)n1 | -4.29%
2 | Fc1ccc2[nH]c(C3CCCN3CCCn3cccn3)nc2c1 (stereo unspecified) | -6.03%
3 | Cc1nc(N2CCCOC(Cn3cccn3)C2)c2sccc2n1 (stereo unspecified) | -2.92%
4 | Cc1cc(C)c2[nH]c(CN3CCCC(N4CCOCC4)C3)cc(=O)c2c1 (stereo unspecified) | -5.41%
5 | COCC(=O)N1CCC2(CCCN(Cc3cc(OC)ccc3F)C2)C1 (stereo unspecified) | -7.78%
6 | CN(CCC(O)c1ccccc1)c1cc(N2CCOCC2)ncn1 (stereo unspecified) | -11%
7 | CSCc1noc(C2CCC(=O)N(CCCN3CCCC3=O)C2)n1 (stereo unspecified) | -4.64%
8 | CN(C)c1cnn(CC(=O)N2CCCCCC2)c(=O)c1 | -0.929%
9 | CCc1nc(N)nc(NCCC(=O)N2CCCC2)c1C | 23.5%
10 | COCc1nc(CNC(=O)C(C)n2ccnc2C(C)C)no1 (stereo unspecified) | -9.39%
11 | O=C(C1CCC1)N1C[C@@H]2CC[C@H](C1)N(S(=O)(=O)c1cccnc1)C2 | -5.86%
12 | Cn1ccc(C(=O)N2CCC3(CCC(=O)N(C4CCCC4)C3)CC2)n1 | 12.2%
13 | Cc1ccccc1N1CC(C)N(C(=O)CCn2cccn2)CC1=O (stereo unspecified) | 15.3%
14 | CCc1ncc2c(n1)CN(C(=O)c1c(C)[nH]c3c1C(=O)CCC3)C2 | 1.67%
15 | CC(C)(CN1CCC(Cc2ccc(CO)cc2)C1)N1CCOCC1 (stereo unspecified) | -10.6%
16 | CN(Cc1cc(-c2ccccc2)no1)Cc1nccn1C | 9.3%
17 | N[C@H]1CN(S(=O)(=O)N2CCCCCC2)C[C@@H]1c1ccccc1 | 20%
18 | COc1ccc(-c2noc(Cn3cc4c(n3)CCC4)n2)c(OC)c1OC | -2.31%
19 | COCCN1CCCC2(CCN(C(=O)c3cnc(O)cn3)C2)C1=O (stereo unspecified) | -6.54%
20 | CCCn1ncc(-c2nc3c(cnn3CC)[nH]2)c1C | -7.07%
21 | O=C(O)CNc1cc(-c2cc(C(=O)NC3CC3)ccn2)c2cc[nH]c2n1 | -0.0958%

Row | Structure (SMILES) | cytotoxicity at 70.5 h
22 | Cc1nn(C)cc1-c1ccnc(N(C)Cc2ccc(F)cc2)n1 | -4.85%
23 | CC(C)CN1CC(C(=O)N(C)CCc2cn[nH]c2)CC1=O (stereo unspecified) | -6.49%
24 | Cc1nc(N2Cc3cnn(Cc4ccc(F)cc4)c3C2)no1 | 13.6%
25 | COc1ccc(CN2CCN(CC3CC3)[C@@H]3CS(=O)(=O)C[C@@H]32)cc1C | 10.6%
26 | CCC(NC(=O)C(C)(C)C)c1ccccc1C (stereo unspecified) | 25.3%
27 | COc1ccc(-c2n[nH]cc2CN(C)Cc2nnc(C)o2)c(F)c1 | 1.72%
28 | CCC(Oc1ccc(N(C)S(C)(=O)=O)cc1)C(=O)N(C)C (stereo unspecified) | -3.36%
29 | COCCN(C)CCN1CC2(CCN(C3CCCNC3)CC2)OC1=O (stereo unspecified) | -4.32%
30 | CCCS(=O)(=O)N1CCN(c2ccnc(N3CCCCC3)n2)CC1 | -8.56%
31 | CN(C)S(=O)(=O)N1CCN(c2ccnc(N3CCCCC3)n2)CC1 | -8.18%
32 | COc1ccccc1NC(=O)c1cc2c([nH]c1=O)CCCC2=O | -11.1%
33 | CCn1c(Cn2cncn2)nnc1C1CCN(CCN)CC1 | 17.7%
34 | CCc1nnc(CN(CC)C(=O)C2CC(=O)N(CC)C2)o1 (stereo unspecified) | -1.3%
35 | CCn1c(CN2CCCC2)nnc1C1CCN(Cc2cccnc2)CC1 | 19.5%
36 | COc1ccc(NC(=O)Cn2nc(C)c(C)cc2=O)cc1 | 1.99%
37 | CCCN1CCCC1c1ccc(C(=O)N2CCOCC2)s1 (stereo unspecified) | 0.549%
38 | O=C(NCCCc1ccco1)c1ccc(N2CCOCC2)cc1 | 4.57%
39 | COc1ccc2cc(C(=O)N3CC[C@H](CO)[C@H](O)C3)n(C)c2c1 | 2.19%
40 | COCCN1C[C@H]2CC[C@@H]1CN(C(=O)c1ccc(Cl)cc1)C2 | -6%
41 | COc1cc(-c2ccc(F)c3c2OC(CN)C3)cc(OC)c1OC (stereo unspecified) | 6.54%
42 | CCC(=O)NCc1ccc(N2CCCCC2)cc1 | -2.28%

Row | Structure (SMILES) | cytotoxicity at 70.5 h
43 | COc1cccc(-n2cc(CN(C)C(=O)c3cnc(O)cn3)cn2)c1 | -9%
44 | COc1cccc(OC2CN(C(=O)c3ccoc3C)C2)c1 | 10.7%
45 | Cn1ncc2c(NC3CCC3)nc(-c3ccncc3)nc21 | -0.235%
46 | COC(=O)N1CCC2(CC1)CC(c1ccccc1)CN(C)C2 (stereo unspecified) | -0.459%
47 | Cc1nc(NCCSc2cnn[nH]2)c2cccnc2n1 | 5.69%
48 | CSc1ccc(CN(CCO)Cc2nccn2C)cc1 | -3.61%
49 | COCCN(C)C[C@@H]1CN(c2cc(C)nc3ccccc23)C[C@@H]1CO | -14.9%
50 | COCCCN1CCN(C(=O)C(c2cccc(F)c2)N(C)C)CC1 (stereo unspecified) | -5.78%
51 | Cc1ccsc1CN1CCCC(CNC(=O)c2ccc(N)nc2)C1 (stereo unspecified) | -8.08%
52 | CC(C)Cn1cncc1CNC1CCSCC1 | 42.7%
53 | Cc1cnc(C(=O)N2CCCC(Cn3cc(C4CC4)nn3)C2)cn1 (stereo unspecified) | -10.1%
54 | COc1ccccc1Oc1ncccc1CNC(=O)C1COC(=O)N1 (stereo unspecified) | -14.6%
55 | CCCSc1ncc(-c2nccn2CCO)cn1 | -12.8%
56 | COc1cccc(F)c1-c1c[nH]c(C)n1 | 11.7%
57 | O=C(c1cnc(Nc2ccccc2)nc1)N1CCS(=O)(=O)CC1 | -8.85%
58 | CNC(=O)Cn1c(-c2ccco2)nn(-c2ccccc2OC)c1=O | 9.58%
59 | O=C(c1ccc(C2CCCO2)s1)N1CCOCC1 (stereo unspecified) | -5.89%
60 | O=C(NCc1cn2c(n1)SCC2)c1ccc(CN2CCCCC2)cc1 | 2.13%
61 | O=C1NC2(CCN(C/C=C/c3ccccc3)CC2)CC1c1ccccc1 (stereo unspecified) | 10.6%
62 | Cc1cc2nc(C(C)C)cc(NCCNc3ncccc3C)n2n1 | 12.1%
63 | CN(C)c1nc2c(c(N3CCC4(CC3)CNC(=O)C4)n1)CCCC2 | -3.91%

Row | Structure (SMILES) | cytotoxicity at 70.5 h
64 | CC(C)c1nc(CCN(C)C(=O)C2COc3ccccc3C2)no1 (stereo unspecified) | -3.01%
65 | CCc1noc(C)c1C(=O)N1C[C@H](NS(C)(=O)=O)[C@@H](C2CC2)C1 | -3.78%
66 | CCc1cc(N2CCC(n3cc(C(=O)NCC(C)C)nn3)CC2)ncn1 | 0.723%
67 | N[C@@H]1c2ccccc2C2(CCN(C(=O)c3ccccc3O)CC2)[C@H]1O | -6.11%
68 | c1ccc(Oc2cccc(OC34CCCN(CC3)C4)c2)cc1 (stereo unspecified) | -12%
69 | Fc1ccc(CCC2CCCN(Cc3c[nH]cn3)C2)c(F)c1 (stereo unspecified) | -3.29%
70 | NC(=O)c1ccc(OCCCN2C[C@H](C3CC3)[C@@H](N)C2)cc1 | -5.8%
71 | N#Cc1c(C2CC2)cc(-c2ccc(F)c(F)c2)nc1N | -3.46%
72 | CNS(=O)(=O)CCNC(=O)[C@@]12CNC[C@@H]1CN(C1CCCC1)C2 | -0.951%
73 | COCC(=O)N1CCc2cccc(S(=O)(=O)N3CCN(C)CC3)c2C1 | -2.39%
74 | O=C1CCC(CCC(=O)N2CCCC2c2nccs2)=NN1 (stereo unspecified) | 8.6%
75 | CCCN1CCC(Cc2noc(-c3cc4cccnc4nc3C)n2)CC1 | 0.578%
76 | CC(O)c1cccc(N2CCC3(CC2)Nc2ccccc2NC3=O)n1 (stereo unspecified) | 21.3%
77 | CSc1nccc(N2CCN(C)C3(CCC(=O)N(CC4CC4)CC3)C2)n1 (stereo unspecified) | 1.61%
78 | O=C(c1cnccn1)N1C[C@@H]2CC[C@H](C1)N(C(=O)CCc1ccsc1)C2 | -0.591%
79 | CCc1c(C)nc(C)nc1N1CCC(NCCSc2nnnn2C)CC1 | -6.49%
80 | Cc1c(C(=O)NCC2CCN(Cc3c[nH]cn3)C2)[nH]c2ccccc12 (stereo unspecified) | 8.7%
81 | c1cncc(NCCCNC2CCSC2)c1 (stereo unspecified) | -3.16%
